Test results taken from patent US20230348468A1, “1H-PYRAZOLO[4,3-d]PYRIMIDINE COMPOUNDS AS TOLL-LIKE RECEPTOR 7 (TLR7) AGONISTS” (BRISTOL-MYERS SQUIBB COMPANY, priority 2020, published 2023).

Key:
human TLR7 = target: T1, human TLR7 (Homo sapiens, UniProt Q9NYK1); experiment: Human TLR7 agonist activity (reporter) assay; type: cell-based; settings: HEK-Blue TLR7 cells, SEAP reporter, 18 h treatment; average where assay performed multiple times; read-out: hTLR7 Agonism EC50
T1 construct: host or cells: HEK-Blue TLR7 cells (engineered human embryonic kidney cells)
T1 sequence (Q9NYK1 27-1049): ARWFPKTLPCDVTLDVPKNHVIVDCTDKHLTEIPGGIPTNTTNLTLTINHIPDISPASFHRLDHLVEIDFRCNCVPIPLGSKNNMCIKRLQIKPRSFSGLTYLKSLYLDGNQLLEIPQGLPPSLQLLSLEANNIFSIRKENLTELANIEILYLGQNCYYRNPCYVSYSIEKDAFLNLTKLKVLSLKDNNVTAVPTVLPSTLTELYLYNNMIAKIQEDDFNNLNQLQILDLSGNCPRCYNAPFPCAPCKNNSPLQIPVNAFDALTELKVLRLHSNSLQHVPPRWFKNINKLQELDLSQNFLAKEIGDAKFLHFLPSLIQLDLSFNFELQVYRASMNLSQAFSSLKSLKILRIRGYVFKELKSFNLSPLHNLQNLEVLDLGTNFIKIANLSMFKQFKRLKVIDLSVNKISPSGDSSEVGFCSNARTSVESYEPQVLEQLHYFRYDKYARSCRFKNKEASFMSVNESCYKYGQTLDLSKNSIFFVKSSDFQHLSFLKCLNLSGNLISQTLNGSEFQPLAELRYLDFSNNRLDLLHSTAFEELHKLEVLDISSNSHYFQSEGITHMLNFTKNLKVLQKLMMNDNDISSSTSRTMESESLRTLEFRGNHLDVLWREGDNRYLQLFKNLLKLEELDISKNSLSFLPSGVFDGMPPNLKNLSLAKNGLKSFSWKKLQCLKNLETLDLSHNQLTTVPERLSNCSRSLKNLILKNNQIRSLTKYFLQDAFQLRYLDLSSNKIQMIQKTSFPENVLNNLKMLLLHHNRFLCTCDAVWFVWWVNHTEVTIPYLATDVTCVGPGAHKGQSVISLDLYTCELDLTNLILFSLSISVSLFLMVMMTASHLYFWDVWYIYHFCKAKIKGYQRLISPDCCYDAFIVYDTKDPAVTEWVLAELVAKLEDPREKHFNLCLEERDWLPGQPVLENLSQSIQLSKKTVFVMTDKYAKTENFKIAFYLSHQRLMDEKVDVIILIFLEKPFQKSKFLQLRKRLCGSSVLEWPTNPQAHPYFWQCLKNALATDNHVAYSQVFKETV
Description: This procedure describes a method for assaying human TLR7 (hTLR7) agonist activity of the compounds disclosed in this specification.
HEK-Blue™ TLR7 cells were added to each well of a 384-well tissue-culture plate (15,000 cells per well) and incubated 16-18 h at 37° C., 5% CO2. Compounds (100 nl) were dispensed into wells containing the HEK-Blue™ TLR cells and the treated cells were incubated at 37° C., 5% CO2. After 18 h treatment ten microliters of freshly-prepared Quanti-Blue” reagent (Invivogen) was added to each well, incubated for 30 min (37° C., 5% CO2) and SEAP levels measured using an Envision plate reader (OD=620 nm). The half maximal effective concentration values (EC50; compound concentration which induced a response halfway between the assay baseline and maximum) were calculated.

CD69 = experiment: Induction of CD69 in human whole blood; type: cell-based; settings: heparinized human whole blood, 17 hrs at 37° C.; 100% set to 1 uM resiquimod; average where assay performed multiple times; read-out: hWB CD69 EC50
Description: The induction of Type I interferon (IFN) MX-1 genes and the B-cell activation marker CD69 are downstream events that occur upon activation of the TLR7 pathway. The following is a human whole blood assay that measures their induction in response to a TLR7 agonist.
Heparinized human whole blood was harvested from human subjects and treated with test TLR7 agonist compounds at 1 mM. The blood was diluted with RPMI 1640 media and Echo was used to predot 10 nL per well giving a final concentration of 1 uM (10 nL in 10 uL of blood). After mixing on a shaker for 30 sec, the plates were covered and placed in a 37° C. chamber for o/n=17 hrs. Fixing/lysis buffer was prepared (5×→1× in H2O, warm at 37° C.; Cat #BD 558049) and kept the perm buffer (on ice) for later use.
For surface markers staining (CD69): prepared surface Abs: 0.045 ul hCD14-FITC (ThermoFisher Cat #MHCD1401)+0.6 ul hCD19-ef450 (ThermoFisher Cat #48-0198-42)+1.5 ul hCD69-PE (cat #BD555531)+0.855 ul FACS buffer. Added 3 ul/well, spin 1000 rpm for 1 min and mixed on shaker for 30 sec, put on ice for 30 mins. Stop stimulation after 30 min with 70 uL of prewarmed 1× fix/lysis buffer and use Feliex mate to resuspend (15 times, change tips for each plate) and incubate at 37 C for 10 min.
Centrifuge at 2000 rpm for 5 min aspirate with HCS plate washer, mix on shaker for 30 sec and then wash with 70 uL in dPBS and pelleted 2×s (2000 rpm for 5 min) and 50 ul wash in FACS buffer pelleted 1×s (2000 rpm for 5 min). Mix on shaker for 30 sec. For Intracellular markers staining (MX-1): Add 50 ul of BD Perm buffer III and mix on shaker for 30 sec. Incubate on ice for 30 min (in the dark). Wash with 50 uL of FACS buffer 2× (spin @2300 rpm×5 min after perm) followed by mixing on shaker for 30 sec. Resuspended in 20 ul of FACS buffer containing MX1 antibody ( )(4812)-Alexa 647: Novus Biologicals #NBP2-43704AF647) 20 ul FACS bf+0.8 ul hIgG+0.04 ul MX-1. Spin 1000 rpm for 1 min, mix on shaker for 30 se and the samples were incubated at RT in the dark for 45 min followed by washing 2×FACS buffer (spin @2300 rpm×5 min after perm). Resuspend 20 ul (35 uL total per well) of FACS buffer and cover with foil and place in 4° C. to read the following day. Plates were read on iQuePlus. The results were loaded into toolset and […] curves are generated in curve master. The y-axis 100% is set to 1 uM of resiquimod.

## CCCCNc1nc(N)nc2cnn(Cc3ccc(C(O)(CC)CC)cc3OC)c12 [Compound 111, 3-(4-{[5-amino-7-(butylamino)-1H-pyrazolo[4,3-d]pyrimidin-1-yl]methyl}-3-methoxyphenyl)pentan-3-ol]
Human TLR7
  EC50: 45.9 nM

## CCC[C@@H](CCO)Nc1nc(N)nc2cnn(Cc3ccc(C4(N)COC4)cc3OC)c12 [Compound 108, (S)-3-((5-amino-1-(4-(3-aminooxetan-3-yl)-2-methoxybenzyl)-1H-pyrazolo[4,3-d]pyrimidin-7-yl)amino)hexan-1-ol]
Human TLR7
  EC50: 43.4 nM
CD69
  EC50: 3.3 nM

## CCCCNc1nc(N)nc2cnn(Cc3ccc(C(C)(C)N)cc3OC)c12 [Compound 101, 1-(4-(2-Aminopropan-2-yl)-2-methoxybenzyl)-N7-butyl-1H-pyrazolo[4,3-d]pyrimidine-5,7-diamine]
Human TLR7
  EC50: 76.6 nM
CD69
  EC50: 11.6 nM

## COc1cc(C(C)(C)N)ccc1Cn1ncc2nc(N)nc(NCc3cc(C)on3)c21 [Compound 103, 1-(4-(2-Aminopropan-2-yl)-2-methoxybenzyl)-N7-((5-methylisoxazol-3-yl)methyl)-1H-pyrazolo[4,3-d]pyrimidine-5,7-diamine]
Human TLR7
  EC50: 202 nM

## CCC[C@@H](CCO)Nc1nc(N)nc2cnn(Cc3ccc(C(C)(C)O)cc3OC)c12 [Compound 109, (3S)-3-[(5-amino-1-{[4-(2-hydroxypropan-2-yl)-2-methoxyphenyl]methyl}-1H-pyrazolo[4,3-d]pyrimidin-7-yl)amino]hexan-1-ol]
Human TLR7
  EC50: 4.6 nM
CD69
  EC50: 3.5 nM

## CCCCNc1nc(N)nc2cnn(Cc3ccc(C(C)(O)C(F)(F)F)cc3OC)c12 (stereo not drawn) [Compound 115, 2-(4-{[5-amino-7-(butylamino)-1H-pyrazolo[4,3-d]pyrimidin-1-yl]methyl}-3-methoxyphenyl)-1,1,1-trifluoropropan-2-ol]
Human TLR7
  EC50: 146 nM
CD69
  EC50: 340 nM

## CCCCNc1nc(N)nc2cnn(Cc3ccc(C(C)(C)O)cc3OC)c12 [Compound 110, 2-(4-{[5-amino-7-(butylamino)-1H-pyrazolo[4,3-d]pyrimidin-1-yl]methyl}-3-methoxyphenyl)propan-2-ol]
Human TLR7
  EC50: 71.1 nM

## CCC[C@@H](CCO)Nc1nc(N)nc2cnn(Cc3ccc(C(C)(C)N)cc3OC)c12 [Compound 102, (S)-3-((5-Amino-1-(4-(2-aminopropan-2-yl)-2-methoxybenzyl)-1H-pyrazolo[4,3-d]pyrimidin-7-yl)amino)hexan-1-ol]
Human TLR7
  EC50: 7.2 nM
CD69
  EC50: 1.8 nM

## CCCCNc1nc(N)nc2cnn(Cc3ccc(C4(O)CNC4)cc3OC)c12 [Compound 116, 3-(4-{[5-amino-7-(butylamino)-1H-pyrazolo[4,3-d]pyrimidin-1-yl]methyl}-3-methoxyphenyl)-azetidin-3-ol]
Human TLR7
  EC50: 786 nM

## CCCCNc1nc(N)nc2cnn(Cc3ccc(C4(N)COC4)cc3OC)c12 [Compound 107, 1-(4-(3-aminooxetan-3-yl)-2-methoxybenzyl)-N7-butyl-1H-pyrazolo-[4,3-d]pyrimidine-5,7-diamine]
Human TLR7
  EC50: 247 nM
CD69
  EC50: 42.6 nM

## CCC[C@@H](CCO)Nc1nc(N)nc2cnn(Cc3cc(C(C)(C)N)ccc3OC)c12 [Compound 104, (S)-3-((5-Amino-1-(5-(2-aminopropan-2-yl)-2-methoxybenzyl)-1H-pyrazolo[4,3-d]pyrimidin-7-yl)amino)hexan-1-ol]
Human TLR7
  EC50: 34.5 nM
CD69
  EC50: 12.7 nM

## CCCCNc1nc(N)nc2cnn(Cc3cc(C(C)(C)N)ccc3OC)c12 [Compound 105, 1-(5-(2-Aminopropan-2-yl)-2-methoxybenzyl)-N7-butyl-1H-pyrazolo[4,3-d]pyrimidine-5,7-diamine]
CD69
  EC50: 50.6 nM

## CCCCNc1nc(N)nc2cnn(Cc3ccc(C4(O)CCC4)cc3OC)c12 [Compound 117, 1-(4-{[5-amino-7-(butylamino)-1H-pyrazolo[4,3-d]pyrimidin-1-yl]methyl}-3-methoxyphenyl)cyclobutan-1-ol]
Human TLR7
  EC50: 25.9 nM
CD69
  EC50: 804 nM

## CCC[C@@H](CCO)Nc1nc(N)nc2cnn(Cc3cnc(C(C)(C)N)cc3OC)c12 [Compound 120, (3S)-3-[(5-amino-1-{[6-(2-aminopropan-2-yl)-4-methoxypyridin-3-yl]methyl}-1H-pyrazolo[4,3-d]pyrimidin-7-yl)amino]hexan-1-ol]
Human TLR7
  EC50: 48.3 nM

## CCC[C@@H](CCO)Nc1nc(N)nc2cnn(Cc3nc(C(C)(C)N)ccc3OC)c12 [Compound 119, (3S)-3-[(5-amino-1-{[6-(2-aminopropan-2-yl)-3-methoxypyridin-2-yl]methyl}-1H-pyrazolo[4,3-d]pyrimidin-7-yl)amino]hexan-1-ol]
Human TLR7
  EC50: 4950 nM

## CCCCNc1nc(N)nc2cnn(Cc3ccc(C4(O)CC4)cc3OC)c12 [Compound 118, 1-(4-{[5-amino-7-(butylamino)-1H-pyrazolo[4,3-d]pyrimidin-1-yl]methyl}-3-methoxyphenyl)cyclopropan-1-ol]
Human TLR7
  EC50: 257 nM
CD69
  EC50: 276 nM

## CC[C@@H](CCO)Nc1nc(N)nc2cnn(Cc3ccc(C(C)(C)N)cc3OC)c12 [Compound 106, (S)-3-((5-amino-1-(4-(2-aminopropan-2-yl)-2-methoxybenzyl)-1H-pyrazolo[4,3-d]pyrimidin-7-yl)amino)pentan-1-ol]
Human TLR7
  EC50: 211 nM
CD69
  EC50: 3.7 nM

## CCCCNc1nc(N)nc2cnn(Cc3ccc(C(C)(O)CC)cc3OC)c12 (stereo not drawn) [Compound 112, 2-(4-{[5-amino-7-(butylamino)-1H-pyrazolo[4,3-d]pyrimidin-1-yl]methyl}-3-methoxyphenyl)butan-2-ol]
Human TLR7
  EC50: 95.9 nM

## CCCCNc1nc(N)nc2cnn(Cc3ccc(C4(O)COC4)cc3OC)c12 [Compound 114, 3-(4-{[5-amino-7-(butylamino)-1H-pyrazolo[4,3-d]pyrimidin-1-yl]methyl}-3-methoxyphenyl)oxetan-3-ol]
Human TLR7
  EC50: 410 nM

## CCCCNc1nc(N)nc2cnn(Cc3ccc(C(C)(O)CCC)cc3OC)c12 (stereo not drawn) [Compound 113, 2-(4-{[5-amino-7-(butylamino)-1H-pyrazolo[4,3-d]pyrimidin-1-yl]methyl}-3-methoxyphenyl)pentan-2-ol]
Human TLR7
  EC50: 256 nM
